Patent US20090184006A1, “METHOD FOR THE DETERMINATION OF THE ACTIVITY OF THE ORGANIC CATION TRANSPORTER” (SANOFI-AVENTIS, priority 2006, published 2009)

Tests used:
hOCT2 (SLC22A2) = molecular target: T1, hOCT2 (SLC22A2) (Homo sapiens, UniProt O15244, S270A); experiment: cell free electrophysiological sensor chip assay, inhibition of choline-induced current, hOCT2 CHO cell membranes; assay type: biochemical; conditions: 30 mM choline as substrate (FIG. 4B legend), pH 7.4, read-out: IC50 of TBA of hOCT2
T1 construct: expressed in transfected cells; host or cells: CHO cells, stably transfected; membrane fragments immobilised on the sensor chip
T1 sequence (O15244 1-555 S270A): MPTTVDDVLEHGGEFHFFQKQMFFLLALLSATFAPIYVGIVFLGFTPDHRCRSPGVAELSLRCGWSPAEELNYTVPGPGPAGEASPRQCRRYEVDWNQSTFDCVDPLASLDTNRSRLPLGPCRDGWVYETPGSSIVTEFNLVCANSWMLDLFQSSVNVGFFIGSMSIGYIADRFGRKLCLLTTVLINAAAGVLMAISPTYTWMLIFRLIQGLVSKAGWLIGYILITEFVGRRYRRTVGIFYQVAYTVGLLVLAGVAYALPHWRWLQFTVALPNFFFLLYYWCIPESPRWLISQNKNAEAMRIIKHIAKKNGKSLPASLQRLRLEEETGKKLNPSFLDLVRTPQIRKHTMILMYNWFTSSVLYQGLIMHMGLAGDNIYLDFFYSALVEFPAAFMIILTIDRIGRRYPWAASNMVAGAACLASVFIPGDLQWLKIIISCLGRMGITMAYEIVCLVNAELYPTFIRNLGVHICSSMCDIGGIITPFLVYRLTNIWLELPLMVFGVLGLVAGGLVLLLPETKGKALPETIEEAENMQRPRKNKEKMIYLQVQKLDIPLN
Procedure: IC50 was determined using 30 mM choline as a substrate.
(§1) After harvesting the cells from a virally transfected Sf9 or HighFive suspension cell line or an stably transfected adherent CHO cell line via centrifugation, aliquots of approx. 2 g wet weight cells were quick-frozen in liquid nitrogen and stored at −80° C. for further preparation.
(§2) The membrane fragments were prepared by cell rapture. Cells were homogenized by the nitrogen cell disruption method utilizing a Parr Cell Disruption Bomb (Parr Instrument Company, Illinois, USA) or the Dounce homogenisation method utilizing a Dounce Homogenisator (7 ml from Novodirect GmbH, Kehl/Rhein, Germany) and the suspension centrifuged 10 min at 4° C. and 680 g and 10 min at 4° C. and 6100 g. The supernatants were collected and again centrifuged for 1 h at 4° C. and 100,000 g in SW41 swing-out rotor.
(§3) Biosensors were prepared according to the following protocol. • 1. Addition of 30 μl mercaptane solution (2% mercaptane in isopropanol) to biosensor • 2. Incubation time: 15 min • 3. Rinsing with 3×70 μl isopropanol • 4. Vacuum dry biosensor • 5. Drying time: 30 min • 6. […]
(§4) For the determination of its activity, the OCT protein was treated consecutively with a washing, non-activating and activating solution and the electrical current was measured when changing from charging to activating treatment. […]

rOCT2 (slc22a2) = molecular target: T2, rOCT2 (slc22a2) (Rattus norvegicus, UniProt Q9R0W2); experiment: cell free electrophysiological sensor chip assay, inhibition of choline-induced current, rOCT2 CHO cell membranes; assay type: biochemical; conditions: 10 mM choline as substrate, pH 7.4, read-out: IC50 of TBA of rOCT2
T2 construct: expressed in transfected cells; host or cells: CHO cells, stably transfected; membrane fragments immobilised on the sensor chip
T2 sequence (Q9R0W2 with tags, fused parts or gaps limits assumed): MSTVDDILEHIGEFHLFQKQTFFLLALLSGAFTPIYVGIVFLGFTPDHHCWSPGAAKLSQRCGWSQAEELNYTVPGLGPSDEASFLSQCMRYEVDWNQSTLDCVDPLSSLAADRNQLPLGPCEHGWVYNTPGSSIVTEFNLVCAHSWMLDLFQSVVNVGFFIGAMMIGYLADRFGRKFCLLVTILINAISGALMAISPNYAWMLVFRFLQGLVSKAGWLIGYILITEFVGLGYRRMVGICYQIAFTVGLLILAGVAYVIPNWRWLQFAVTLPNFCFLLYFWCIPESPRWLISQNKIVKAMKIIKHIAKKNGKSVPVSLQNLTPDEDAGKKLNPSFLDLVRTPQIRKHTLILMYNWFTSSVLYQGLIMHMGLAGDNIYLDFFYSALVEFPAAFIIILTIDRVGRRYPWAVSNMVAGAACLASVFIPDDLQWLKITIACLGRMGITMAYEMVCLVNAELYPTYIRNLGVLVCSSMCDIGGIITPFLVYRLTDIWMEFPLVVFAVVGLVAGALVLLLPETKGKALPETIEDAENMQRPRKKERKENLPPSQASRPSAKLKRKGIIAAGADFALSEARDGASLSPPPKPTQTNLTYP
Procedure: IC50 was determined using 10 mM choline as a substrate.
as §1, §2, §3, §4

## CCCC[N+](CCCC)(CCCC)CCCC [TBA]
hOCT2 (SLC22A2)
  IC50: 2.9 µM
rOCT2 (slc22a2)
  IC50: 3.5 µM
